Legend:
[1] = system: F21T (DNA, G4) GGGTTAGGGTTAGGGTTAGGG; assay: FRET melting; conditions: K+ 10 mM, Na+ 10 mM, Li+ 90 mM; KCl–LiCl–cacodylate, pH 7.0; LDR 5; DNA 0.2 mM [sic] (0.2 µM, ligand 1 µM)
[2] = system: FkitT (DNA, G4) AGGGAGGGCGCTGGGAGGAGGG; assay: FRET melting; conditions: K+ 10 mM, Na+ 10 mM, Li+ 90 mM; KCl–LiCl–cacodylate, pH 7.0; LDR 5; DNA 0.2 mM [sic] (0.2 µM, ligand 1 µM)
[3] = system: Fa2T (DNA, G4) ACAGGGTGTACAGGGTGT; assay: FRET melting; conditions: K+ 10 mM, Na+ 10 mM, Li+ 90 mM; KCl–LiCl–cacodylate, pH 7.0; LDR 5; DNA 0.2 mM [sic] (0.2 µM, ligand 1 µM)
[4] = system: 22AG (DNA, G4) AGGGTTAGGGTTAGGGTTAGGG; assay: photometric (absorption) titration; conditions: K+ 110 mM; K-phosphate buffer, pH 7.0, 5% v/v DMSO; ligand 20 µM; per site
[5] = system: FmycT (DNA, G4) TGAGGGTGGGTAGGGTGGGTA; assay: FRET melting; conditions: K+ 10 mM, Na+ 10 mM, Li+ 90 mM; KCl–LiCl–cacodylate, pH 7.0; LDR 5; DNA 0.2 mM [sic] (0.2 µM, ligand 1 µM)

Row | SMILES | ∆Tm [1] [°C] | ∆Tm [2] [°C] | ∆Tm [3] [°C] | Kb [4] | ∆Tm [5] [°C]
1 | COc1ccc(Oc2ccc3cc4[n+](cc3c2OC)CCc2cc3c(cc2-4)OCO3)cc1 | 3.9 ± 0.5 | 0.6 ± 0.5 | 0.1 ± 0.5 | 7.2 ± 0.2 × 10^5 M^-1 | 
2 | COc1c(Oc2ccc(Br)cc2)ccc2cc3[n+](cc12)CCc1cc2c(cc1-3)OCO2 | 1.8 ± 0.5 |  |  | 5.2 ± 0.3 × 10^5 M^-1 | 2.1 ± 0.5
3 | COc1c(Oc2ccc(Cl)cc2)ccc2cc3[n+](cc12)CCc1cc2c(cc1-3)OCO2 | 2.6 ± 0.5 |  | 1.2 ± 0.5 | 7.1 ± 0.2 × 10^5 M^-1 | 
4 | COc1c(Oc2ccccc2)ccc2cc3[n+](cc12)CCc1cc2c(cc1-3)OCO2 | 3.2 ± 0.5 | 0.1 ± 0.5 |  | 8.7 ± 0.2 × 10^5 M^-1 | 0.4 ± 0.5
5 | COc1c(Oc2ccc([N+](=O)[O-])cc2)ccc2cc3[n+](cc12)CCc1cc2c(cc1-3)OCO2 | 3.5 ± 0.5 |  |  | 7.9 ± 0.3 × 10^5 M^-1 | 1.8 ± 0.5

— publication PMC8111429 (2021)
